# Source: US8524902B2, “[1,2,4]triazolo[4,3-f]pteridines useful as inhibitors of protein kinases” (Vertex Pharmaceuticals Incorporated, priority 2006, dated 2013)
# Molecular target: T1, Plk1 (Homo sapiens, UniProt P53350)
# T1 construct: in the presence of 15 nM Plk1 (A20-K338)
# Assay: Plk1 inhibition assay (radioactive-phosphate incorporation)
# Assay type: biochemical
# Details: Ki(app) from [γ-33P]ATP incorporation, 25° C.
# Experimental: Compounds of the present invention may be evaluated as inhibitors of human PLK kinase using the following assays.
# Compounds were screened for their ability to inhibit Plk1 using a radioactive-phosphate incorporation assay. Assays were carried out in a mixture of 25 mM HEPES (pH 7.5), 10 mM MgCl2, and 1 mM DTT. Final substrate concentrations were 50 μM [γ-33P]ATP (136 mCi 33P ATP/mmol ATP, Amersham Pharmacia Biotech/Sigma Chemicals) and 10 μM peptide (SAM68 protein Δ332-443). Assays were carried out at 25° C. in the presence of 15 nM Plk1 (A20-K338). An assay stock buffer solution was prepared containing all of the reagents listed above, with the exception of ATP and the test compound of interest. 30 μL of the stock solution was placed in a 96 well plate followed by addition of 2 μL of DMSO stock containing serial dilutions of the test compound (typically starting from a final concentration of 10 μM with 2-fold serial dilutions) in duplicate (final DMSO concentration 5%). The plate was pre-incubated for 10 minutes at 25° C. and the reaction initiated by addition of 8 μL [γ33P]ATP (final concentration 50 μM).
# (§1) The reaction was stopped after 60 minutes by the addition of 100 μL 0.14M phosphoric acid. A multiscreen phosphocellulose filter 96-well plate (Millipore, Cat no. MAPHN0B50) was pretreated with 100 μL 0.2M phosphoric acid prior to the addition of 125 μL of the stopped assay mixture. The plate was washed with 4×200 μL 0.2M phosphoric acid. After drying, 100 μL Optiphase ‘SuperMix’ liquid scintillation cocktail (Perkin Elmer) was added to the well prior to scintillation counting (1450 Microbeta Liquid Scintillation Counter, Wallac).
# After removing mean background values for all of the data points, Ki(app) data were calculated from non-linear regression analysis of the initial rate data using the Prism software package (GraphPad Prism version 3.0cx for Macintosh, GraphPad Software, San Diego Calif., USA).
# Compounds were screened for their ability to inhibit Plk1 using a radioactive-phosphate incorporation assay. Assays were carried out in a mixture of 25 mM HEPES (pH 7.5), 10 mM MgCl2, 0.1% BSA, and 2 mM DTT. Final substrate concentrations were 150 μM (350 μM for determining values of <1 nM) [γ-33P]ATP (115 mCi 33P ATP/mmol ATP, Amersham Pharmacia Biotech/Sigma Chemicals) and 300 μM (450 μM for determining values of <1 nM) peptide (KKKISDELMDATFADQEAK) SEQ. ID NO. 1. Assays were carried out at 25° C. in the presence of 4 nM (1 nM for determining values of <1 nM) Plk1. An assay stock buffer solution was prepared containing all of the reagents listed above, with the exception of ATP and the test compound of interest. 30 μL of the stock solution was placed in a 96 well plate followed by addition of 2 μL of DMSO stock containing serial dilutions of the test compound (typically starting from a final concentration of 10 μM with 2-fold serial dilutions) in duplicate (final DMSO concentration 5%). The plate was pre-incubated for 10 minutes at 25° C. and the reaction initiated by addition of 8 μl [γ-33P]ATP (final concentration 150 μM (350 μM for determining values of <1 nM))).
# as §1, with “90” for “60”, “minutes (240 minutes for determining values of <1 nM)” for “minutes”
# T1 sequence (P53350 20-338): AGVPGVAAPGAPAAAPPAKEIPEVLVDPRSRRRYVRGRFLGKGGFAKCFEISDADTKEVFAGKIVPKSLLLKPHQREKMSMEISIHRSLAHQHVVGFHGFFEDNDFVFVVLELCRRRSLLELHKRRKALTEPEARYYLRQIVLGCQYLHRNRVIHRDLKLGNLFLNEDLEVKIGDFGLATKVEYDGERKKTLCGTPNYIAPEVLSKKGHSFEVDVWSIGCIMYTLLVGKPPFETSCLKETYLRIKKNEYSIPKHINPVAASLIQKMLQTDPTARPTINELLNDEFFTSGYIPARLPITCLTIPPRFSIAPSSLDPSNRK
row,Compound,Ki
1,"CC[C@@H]1c2nncn2-c2cnc(Nc3ccc(C(=O)NC)cc3OC)nc2N1C1CCC1 [Compound I-29, (R)-4-(5-cyclobutyl-4-ethyl-4,5-dihydro-[1,2,4]triazolo[4,3-f]pteridin-7-ylamino)-3-methoxy-N-methylbenzamide]",< 10 nM
2,"CC[C@@H]1c2nncn2-c2cnc(Nc3ccc(C(=O)NC)cc3COC)nc2N1C1CCCC1 [Compound I-30, (R)-4-(5-cyclopentyl-4-ethyl-4,5-dihydro-[1,2,4]triazolo[4,3-f]pteridin-7-ylamino)-3-(methoxymethyl)-N-methylbenzamide]",< 10 nM
3,"CC[C@@H]1c2nncn2-c2cnc(NCc3ccccc3)nc2N1C1CCCC1 [Compound I-31, (R)—N-benzyl-5-cyclopentyl-4-ethyl-4,5-dihydro-[1,2,4]triazolo[4,3-f]pteridin-7-amine]",10 to 100 nM
4,"CC[C@@H]1c2nncn2-c2cnc(Nc3ccc(N4CCN(C)CC4)cc3)nc2N1C1CCCC1 [Compound I-32, (R)-5-cyclopentyl-4-ethyl-N-(4-(4-methylpiperazin-1-yl)phenyl)-4,5-dihydro-[1,2,4]triazolo[4,3-f]pteridin-7-amine]",< 10 nM
5,"CC[C@@H]1c2nncn2-c2cnc(Nc3ccc(OC(F)F)cc3)nc2N1C1CCCC1 [Compound I-33, (R)-5-cyclopentyl-N-(4-(difluoromethoxy)phenyl)-4-ethyl-4,5-dihydro-[1,2,4]triazolo[4,3-f]pteridin-7-amine]",< 10 nM
6,"CC[C@@H]1c2nncn2-c2cnc(Nc3ccc(N4CCOCC4)cc3)nc2N1C1CCCC1 [Compound I-34, (R)-5-cyclopentyl-4-ethyl-N-(4-morpholinophenyl)-4,5-dihydro-[1,2,4]triazolo[4,3-f]pteridin-7-amine]",< 10 nM
7,"CC[C@@H]1c2nncn2-c2cnc(Nc3ccc(F)cc3)nc2N1C1CCCC1 [Compound I-35, (R)-5-cyclopentyl-4-ethyl-N-(4-fluorophenyl)-4,5-dihydro-[1,2,4]triazolo[4,3-f]pteridin-7-amine]",< 10 nM
8,"CC[C@@H]1c2nncn2-c2cnc(Nc3ccc(-n4cccn4)cc3)nc2N1C1CCCC1 [Compound I-39, (R)—N-(4-(1H-pyrazol-1-yl)phenyl)-5-cyclopentyl-4-ethyl-4,5-dihydro-[1,2,4]triazolo[4,3-f]pteridin-7-amine]",< 10 nM
9,"CC[C@@H]1c2nncn2-c2cnc(Nc3ccc(C(F)(F)F)nc3)nc2N1C1CCCC1 [Compound I-40, (R)-5-cyclopentyl-4-ethyl-N-(6-(trifluoromethyl)pyridin-3-yl)-4,5-dihydro-[1,2,4]triazolo[4,3-f]pteridin-7-amine]",10 to 100 nM
10,"CC[C@@H]1c2nncn2-c2cnc(Nc3ccc(N4CCN(C)CC4)nc3)nc2N1C1CCCC1 [Compound I-41, (R)-5-cyclopentyl-4-ethyl-N-(6-(4-methylpiperazin-1-yl)pyridin-3-yl)-4,5-dihydro-[1,2,4]triazolo[4,3-f]pteridin-7-amine]",< 10 nM
11,"CC[C@@H]1c2nncn2-c2cnc(Nc3ccc(N4CCCC4)cc3)nc2N1C1CCCC1 [Compound I-42, (R)-5-cyclopentyl-4-ethyl-N-(4-(pyrrolidin-1-yl)phenyl)-4,5-dihydro-[1,2,4]triazolo[4,3-f]pteridin-7-amine]",< 10 nM
